Results taken from patent US12139534B2, “Methods and compositions for decreasing soluble immune receptor CD28” (BIOND BIOLOGICS LTD., priority 2018, dated 2024).

Legend:
human PBMCs [1] = assay: Viability of SEB stimulated PBMCs with ADAM inhibitors (MTT assay); type: cell-based; details: SEB 1 ng/mL, inhibitor 0.01-1 μM, with vs without inhibitor
human PBMCs [2] = assay: Soluble CD28 generation by SEB or CMV stimulated PBMCs, human CD28 ELISA; type: cell-based; details: stimulated cells with protease inhibitors; sandwich ELISA
Experimental: ELISA—Commercial ELISA kits were used for quantitation of the amount of human interferon-gamma (Biolegend, Cat. No. 430103), human interleukin 2 (Biolegend, Cat. No. 431802), human interleukin 6 (Biolegend, Cat. No. 430502), human interleukin 10 (Biolegend, Cat. No. 430603), human […] beta 1 (Biolegend, Cat. No. 436708), human interleukin beta 1 (Biolegend, Cat. No. 437004) and human CD28 (R&D system, Cat. No. DY342). Cell Proliferation and viability (MTT assay) was conducted according to manufacturer instructions (Roche, cat #11465007001). Kynurenine (IDO activity) ELISA kit was conducted according to manufacturer instructions (ImmuSmo Cat #BA E-2200).
Protease Inhibitors—Protease inhibitors were added at the indicated concentrations at the start of each experiment. In week long assays another portion of the inhibitors was added after 3 days at the final concentration. […] Where mentioned the protease cocktail was composed with a mixture of TAPI-1 and GM6001 at equimolar ratio.
SEB or CMV activation of PBMCs for the generation of soluble CD28—0.3×10^6 PBMCs were stimulated with 0.5 ng/mL SEB (Sigma, Cat. No. S4881) for 5-7 days at 37° C. with/without the indicated concentration of various protease inhibitors in 48 well plate. Alternatively, 0.1×10^6 PBMCs were stimulated with 0.5 ng/mL SEB in 96 well plate format assay. For CMV stimulation 0.5×10^6 PBMCs were stimulated with 0.5 μg/mL CMV peptivator (Milteny Biotec, Cat. No. 130-093-435) for 2-5 days at 37° C. with/without the indicated concentration of various protease inhibitors in a 96 well plate. For continuous shedding experiments PBMC were stimulated with SEB or CMV in 24 well plate for 24 hr, cells were taken and washed three times with RPMI without stimulant and plated again in a 96 well plate. Samples were taken at indicated times and put under freezing conditions until examination for soluble CD28.

SCC-25 cells = assay: SCC-25 cancer cell line trans-well co-culture with monocytes, proliferation; type: cell-based, human
Experimental: Co-culture of SCC-25 cancer cell line with monocytes in trans-well based assay—4×10^4 SCC-25 cells were plated on the bottom of 24 well plate with 1×10^5 monocytes placed on cell culture insert (Millipore, Cat. No. MCHT241148) with or without indicated treatments for 4 days in starvation media without serum.
Next, cells of the head and neck cancer cell line SCC-25 were incubated either alone or with monocytes in a trans-well assay. SCC-25 cells grown alone were administered IL-6 as a positive control, and indeed cell proliferation, as measured by MTT (FIG. 10D, upper) and as measured by % confluency (FIG. 10D, lower), was increased.

human PBMCs [3] = assay: SEB or CMV stimulated PBMCs with anti-PD1 and/or soluble CD28, cytokine secretion; type: cell-based
[4] = test system: autologous monocytes and CD3 T cells; assay: Autologous monocytes CD3 MLR with CMV peptide, cytokine secretion; type: cell-based, human
Experimental: Autologous monocytes CD3 MLR—0.5×10^6 T cells were mixed with 0.5×10^5 monocytes from same CMV reactive donor and stimulated with 0.5 μg/mL CMV peptivator for 6 days at 37° C. with/without the indicated concentration of treatments.
The mixed cells were stimulated for 5 days with CMV peptide (0.5 μg/mL) with and without increasing concentrations of recombinant human sCD28.
The MLR was run as before only with and without sCD28 and with and without an anti-PD1 antibody (MK3475, 5 μg/mL) (FIG. 9B).

human PBMCs [5] = assay: Lymphocyte clustering of SEB stimulated PBMCs (IncuCyte); type: cell-based; details: SEB 1 ng/mL; human IgG control
Experimental: Next, human PBMCs were stimulated with SEB (1 ng/mL) without or in the presence of recombinant human CD28. Human IgG was used as control. Lymphocyte clustering, a hallmark of immune activation was monitored using the IncuCyte® S3 Live-Cell, with pictures taken every 12 hours. […] It is well established that during in-vitro immune response antigen presenting cells (APC) cluster with one another and with other cell types, and clustering is essential for the antigen specific activation of resting lymphocytes.

[6] = test system: isolated CD3 human T cells; assay: CD3 T cells stimulation with anti-CD3 OKT3, IFN gamma secretion; type: cell-based; details: OKT3 2 μg/mL, CD80-Fc 2 μg/mL, sCD28 titration
Experimental: T cells stimulation with OKT3—0.1×10^6 isolated CD3 T cells (from healthy donors) were stimulated with indicated amount of anti-CD3 clone OKT3 for 48-72 hr at 37° C. When stated recombinant human CD80-Fc (2 μg/mL, R&D system) was added in soluble form. Antibodies to CD28 or controls were added at the indicated concentration in soluble form.
CD80 is one of the two main ligands for mCD28 along with CD86. The extracellular domain of CD80 fused to an Fc moiety has been used as an immune stimulatory molecule and is under investigation as a cancer therapy. In order to examine the effect of sCD28 on CD80-Fc efficacy, isolated CD3 human T cells were stimulated with plate bound anti-CD3 antibody (OKT3, 2 μg/mL) in the presence of 2 μg/mL soluble recombinant human CD80-Fc.

[7] = test system: H22 hepatocellular carcinoma cells; assay: H22 syngeneic mouse model, tumor growth; type: in vivo; details: Balb/c mice, H22 allograft, with anti-PD-1 therapy
Source text: The closest option is to administer recombinant sCD28 to mice to mimic a situation of elevated sCD28 levels. This was investigated in a H22 syngeneic mouse model. Balb/c fully immunocompetent mice received an allograft of H22 hepatocellular carcinoma cells.

human monocytes = assay: Stimulation of monocytes with recombinant human CD28 (IDO, PD-L1, PD-L2); type: cell-based; details: recombinant human CD28 10 μg/mL
Experimental: Flow Cytometry—Generally, cells were kept on ice during all steps. Prior to staining, 5×10^5 cells were blocked with 50 μg/mL human IgG (Sigma, Cat. No. 14506) in FACS buffer (PBS with 0.1% BSA) for 15 min. Antibodies were used at concentrations recommended by the manufacturer and incubated for 30 min. in the dark. Incubations were done in a volume of 100 μL in 96-well U bottom plates. Cells were washed twice with 200 μL of FACS buffer and transferred to FACS tubes in 150 μL of FACS buffer for analysis. Cells were analyzed on a Gallios Flow Cytometer (Beckman Coulter) using the Kaluza for Gallios Flow Cytometry Acquisition Software.
Stimulation of monocytes with recombinant human CD28—1.5×10^6 monocytes were plated at 24 well plate in RPMI medium with […] IFN gamma (R&D system, Cat. No. 285-IF) in the presence of recombinant human CD28 at the indicated concentrations for 48 hrs. The generated cell populations were tested for the indicated phenotypes by FACS analysis of relevant markers (IDO, PD-L1 and PD-L2) and by analysis of secretion of characteristic cytokines (IL-6).
The enzyme indoleamine 2,3-dioxygenase (IDO) has been implicated in immune modulation through its ability to catabolize the essential amino acid Tryptophan. It is expressed by different immune cells and also by many cancer cells. Tryptophan shortage inhibits T lymphocytes maturation and proliferation, while Kynurenine, the end product of tryptophan catabolism, is also known as immunosuppressive metabolite that promotes immune tolerance in various physiological and pathophysiological conditions. To test the effect of sCD28 on IDO, isolated human monocytes were stimulated for 48 hr with IFNγ (1000 U/mL) in the presence of control human IgG or with recombinant human CD28 (10 μg/mL). After incubation, the monocytes were stained intracellularly for human IDO (FIG. 8E). To facilitate intracellular staining the cells were fixed and permeabilized with BD Cytofix/Cytoperm Buffer Kit. […]

[8] = test system: PBMCs isolated from cancer patients; assay: SEB stimulated PBMCs of cancer patients, IFN gamma secretion; type: cell-based, human; details: SEB 5 ng/mL, 3 days
human PBMCs [9] = assay: CMV stimulation of PBMCs with ectopic recombinant human CD28, CTLA-4, CD80; cytokine ELISA/multiplex; type: cell-based

CC#CCOc1ccc(S(=O)(=O)N2CCSC(C)(C)[C@@H]2C(=O)NO)cc1 [TMI-1]
viability of the immune cells (MTT) (human PBMCs [1]): no significant difference | sCD28 levels detected with antibodies of the invention (human PBMCs [2]): Lower levels of sCD28

IL-6: interleukin-6 administered as a positive control
cell proliferation (MTT, % confluency) (SCC-25 cells; SCC-25 cells grown alone): increased

MK-3475: Anti-Human PD-1 pembrolizumab [reference compound]
proinflammatory cytokine secretion (IFN gamma and IL-2) (human PBMCs [3]; PBMC culture, SEB or CMV, 3 days, MK3475 5 μg/mL): increased proinflammatory cytokine secretion | IFN gamma secretion ([4]; CMV peptide 0.5 μg/mL): increased IFN gamma secretion | TGF beta secretion ([4]; CMV peptide 0.5 μg/mL): decreased TGF beta secretion

sCD28: recombinant human CD28 lacking the transmembrane and cytoplasmic domains
lymphocyte cluster formation (human PBMCs [5]): diminish the amount and size of cluster formation | effect on CD80-Fc activation (IFN gamma secretion) [6]: counteracted the secondary activation effect of the CD80-Fc | effect on immune activation by MK-3475 (human PBMCs [3]; sCD28 2 and 10 μg/mL with MK3475 5 μg/mL): abrogated completely this immune activation effect | effect on anti-PD-1 therapy (tumor growth) [7]: nearly completely abrogated in two of the mice | cell proliferation (MTT, % confluency) (SCC-25 cells; SCC-25 coculture with monocytes): by far the greatest increase | PD-L1 expression on monocytes (human monocytes; IFNγ 1000 U/mL 48 hours): upregulated | PD-L2 expression on monocytes (human monocytes; IFNγ 1000 U/mL 48 hours): upregulated | IDO expression in monocytes (human monocytes; IFNγ 1000 U/mL 48 hr): strongly enhanced IDO expression | effect on MK-3475 activity [8]: rendered the effect of MK-3475 nonexistent | concentration of human IFN gamma in the supernatant ([8]; with or without MK-3475): greatly reduced | IFN gamma secretion ([4]; CMV peptide 0.5 μg/mL): inhibit IFN gamma secretion | TGF beta secretion ([4]; CMV peptide 0.5 μg/mL): increasing the secretion | IL-1B secretion ([4]; CMV peptide 0.5 μg/mL, 5 days): increasing the secretion | IL-10 secretion ([4]; CMV peptide 0.5 μg/mL, 5 days): increasing the secretion | effect of MK-3475 in the presence of sCD28 ([4]; MK3475 5 μg/mL): significantly reduced | IFN gamma secretion (human PBMCs [9]; CMV 0.5 μg/mL): dose-dependent inhibition of IFN gamma secretion | IL-6 secretion (human PBMCs [9]; CMV 0.5 μg/mL): increase IL-6 cytokine secretion | interleukin-10 secretion (human PBMCs [9]; CMV 0.5 μg/mL): elevation | CD80-Fc amount needed for immune response (human PBMCs [9]; CMV peptide 3 days, constant sCD28, CD80-Fc titration): an increased amount of CD80-Fc was required
